Patent US4607114A, “Novel platinum complexes” (Nippon Kayaku Kabushiki Kaisha, priority 1983, dated 1986)
Read-outs that look alike come from different tables or passages of the source.

How the values were obtained:
[1] = background statement; cited from earlier work
[2] = test system: mouse leukemia L-1210; assay: Antitumor activity on mouse leukemia L-1210 (T/C percentage of survival); assay type: in vivo; settings: i.p. once a day for 5 days, female CDF1 mouse
Method: (2) Test for antitumor activity on mouse leukemia L-1210.
Into 6-weeks-old female CDF1 mouse were inoculated 1×10^5 L-1210 cells, and each drug was administered intraperitoneally once a day for 5 consecutive days, starting 24 hours after the inoculation. Physiological saline was administered to a control group. From the average survival periods of the drug-treated group and the control group (abbreviated as T and C, respectively), T/C percentage (T/C×100) was determined.

[3] = Solubility in water
[4] = test system: mouse leukemia L-1210 cells; assay: Inhibitory activity on multiplication of mouse leukemia L-1210 initially cultured cells; assay type: cell-based; settings: 48 hours, 37° C., RPMI 1640 with 10% bovine fetal serum
Method: (1) Test for inhibitory activity on multiplication of mouse leukemia L-1210 initially cultured cells.
Mouse leukemia L-1210 cells collected from the abdominal cavities of DBA/2 mouse were incubated in a 5% CO2 incubator at 37° C. for 48 hours by using a RPMI 1640 medium containing 10% of bovine fetal serum and 5 μM of 2-mercaptoethanol.

Compound	Antitumor effect shown by T/C percentage ([2]; 1 mg/kg) [%]	Antitumor effect shown by T/C percentage ([2]; 2 mg/kg) [%]	Antitumor effect shown by T/C percentage ([2]; 4 mg/kg) [%]	Antitumor effect shown by T/C percentage ([2]; 8 mg/kg) [%]	Solubility in water [µg/mL]	further results
N.N.[Cl][Pt][Cl] [cis-Platin, cis-dichlorodiammineplatinum]						carcinostatic effect [1]: very excellent
CC1(C)C[NH][Pt]([Cl])([Cl])[NH]1 [compound 1, cis-Dichloro-1,2-diamino-2-methylpropane platinum]	133	171	206	124	5000	Antitumor effect shown by T/C percentage ([2]; 16 mg/kg): 51%
CC(C)(N)CN.[Cl][Pt]([Cl])([Cl])[Cl] [compound 3, cis-Tetrachloro-1,2-diamino-2-methylpropane platinum]	127	139	162	154	> 12000	Antitumor effect shown by T/C percentage ([2]; 16 mg/kg): 60%
CCC(C)(N)CN.[Cl][Pt][Cl] (stereo not drawn) [compound 4, cis-Dichloro-1,2-diamino-2-methylbutane platinum]					3500	
CCC(N)(CC)CN.O=C([O-])C(=O)[O-].[Pt+2] [compound 6, cis-Oxalato-1,2-diamino-2-ethylbutane platinum]	130	152	226	206		Antitumor effect shown by T/C percentage ([2]; 16 mg/kg): 211%
CCC(N)(CC)CN.[OH][Pt]([OH])([Cl])[Cl] [compound 7, cis-Dichloro-trans-dihydroxy-1,2-diamino-2-ethylbutane platinum]					13000	
CCC(N)(CC)CN.[Cl][Pt]([Cl])([Cl])[Cl] [compound 8, cis-Tetrachloro-1,2-diamino-2-ethylbutane platinum]					5000	
CCC1C(=O)[O][Pt]2([NH]CC(CC)(CC)[NH]2)[O]C1=O (stereo not drawn) [compound 9, cis-2-Ethylmalonato-1,2-diamino-2-ethylbutane platinum]					25000	
CCC(N)(CC)CN.O=C([O-])C(O)C(=O)[O-].[Pt+2] [compound 10, cis-2-Hydroxymalonato-1,2-diamino-2-ethylbutane platinum]					16000	
NCC1(N)CCCCC1.[OH][Pt]([OH])([Cl])[Cl] [compound 11, cis-Dichloro-trans-dihydroxy-1-amino-1-aminomethylcyclohexane platinum]			162	237	> 2000	Antitumor effect shown by T/C percentage ([2]; 16 mg/kg): 275%; Antitumor effect shown by T/C percentage ([2]; 32 mg/kg): 108%; Antitumor effect shown by T/C percentage ([2]; 64 mg/kg): 67%
NCC1(N)CCCCC1.[Cl][Pt]([Cl])([Cl])[Cl] [compound 12, cis-Tetrachloro-1-amino-1-aminomethylcyclohexane platinum]	200	259	224	95	> 15000	Antitumor effect shown by T/C percentage ([2]; 0.5 mg/kg): 137%
O=C(CCl)[O][Pt]1([O]C(=O)CCl)[NH]CC2(CCCCC2)[NH]1 [compound 15, cis-bis(Chloroacetato)-1-amino-1-aminomethylcyclohexane platinum]	175	200	299	130	> 1500	Antitumor effect shown by T/C percentage ([2]; 0.5 mg/kg): 135%
CCC(C(=O)[O-])C(=O)[O-].NCC1(N)CCCCC1.[Pt+2] [compound 17, cis-2-Ethylmalonato-1-amino-1-aminomethyl cyclohexane platinum]						Solubility in water [3]: 8000 µg/mL
NCC1(N)CCCC1.[Cl][Pt][Cl] [compound 18, cis-Dichloro-1-amino-1-aminomethylcyclopentane platinum]	226	344	141	92		IC50 [4]: 0.02 µg/mL; Antitumor effect shown by T/C percentage ([2]; 0.5 mg/kg): 179%
NCC1(N)CCCC1.[OH][Pt]([OH])([Cl])[Cl] [compound 19, cis-Dichloro-trans-dihydroxy-1-amino-1-aminomethylcyclopentane platinum]			138	174		IC50 [4]: 0.60 µg/mL; Antitumor effect shown by T/C percentage ([2]; 16 mg/kg): 323%; Antitumor effect shown by T/C percentage ([2]; 32 mg/kg): 113%; Antitumor effect shown by T/C percentage ([2]; 64 mg/kg): 80%
[Cl][Pt]1([Cl])([Cl])([Cl])[NH]CC2(CCCC2)[NH]1 [compound 20, cis-Tetrachloro-1-amino-1-aminomethyl cyclopentane platinum]					18000	
NCC1(N)CCCC1.O=C([O-])C(=O)[O-].[Pt+2] [compound 21, cis-Oxalato-1-amino-1-aminomethylcyclopentane platinum]	141	161	189	166		Antitumor effect shown by T/C percentage ([2]; 0.5 mg/kg): 124%
NCC1(N)CCCC1.O=C([O-])C(O)C(=O)[O-].[Pt+2] [compound 23, cis-2-Hydroxymalonato-1-amino-1-aminomethylcyclopentane platinum]					5000	
cis-Dichloro-1,2-diamino-2-ethylbutane platinum [compound 5]	181	291	199	82	> 2500	Antitumor effect shown by T/C percentage ([2]; 0.5 mg/kg): 135%
cis-Oxalato-1-amino-1-aminomethylcyclohexane platinum [compound 13]	188	296	230	218	> 2500	IC50 [4]: 0.021 µg/mL; Antitumor effect shown by T/C percentage ([2]; 0.5 mg/kg): 146%
cis-bis(Pyruvato)-1-amino-1-aminomethylcyclohexane platinum [compound 16]					> 2000	
